biological target: T1, GLUT1 (Homo sapiens, UniProt P11166); experiment: Uptake of 3H-glucose by GLUT1 expressed in Xenopus oocytes; format: cell-based; parameters: expressed in transfected cells; host or cells: Xenopus oocytes (defolliculated), injected with in vitro transcribed GLUT1 cRNA; settings: Xenopus oocytes injected with GLUT1 cRNA
T1 sequence (P11166 1-492): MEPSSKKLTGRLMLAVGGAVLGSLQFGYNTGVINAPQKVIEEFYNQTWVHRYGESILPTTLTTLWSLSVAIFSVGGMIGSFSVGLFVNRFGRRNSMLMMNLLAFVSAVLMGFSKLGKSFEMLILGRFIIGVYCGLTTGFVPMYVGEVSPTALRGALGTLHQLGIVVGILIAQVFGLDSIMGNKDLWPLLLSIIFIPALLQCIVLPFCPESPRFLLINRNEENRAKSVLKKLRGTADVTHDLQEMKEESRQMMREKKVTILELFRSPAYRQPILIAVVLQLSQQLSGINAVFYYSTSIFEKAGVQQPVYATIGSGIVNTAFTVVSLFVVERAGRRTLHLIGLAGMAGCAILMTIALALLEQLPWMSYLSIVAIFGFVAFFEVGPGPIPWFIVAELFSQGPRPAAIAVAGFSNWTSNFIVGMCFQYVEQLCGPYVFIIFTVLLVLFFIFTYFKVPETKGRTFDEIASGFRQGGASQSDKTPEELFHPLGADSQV
Description: To assess transport function of a specific transporter protein, it can be desirable to clone the cDNA and express the protein in cells that have low endogenous transport activity. Human GLUT1 was cloned by PCR, fully sequenced, and subcloned into plasmids that can be used for expression in mammalian cells or Xenopus oocytes. […] For expression in Xenopus oocytes, in vitro GLUT1 cRNA was prepared and injected into defoliculated oocytes. […]

With O=C[C@H](O)[C@@H](O)[C@H](O)[C@H](O)CO [^3H-glucose] the “3H-glucose uptake versus noninjected controls” value was “higher levels”.

biological target: T1, GLUT1; experiment: not given; settings: substrates and inhibitors of GLUT1; cited from earlier work

Compared with O=C1O[C@H]([C@@H](O)CO)C(=O)C1=O [Dehydroascorbic Acid], O=C[C@H](O)[C@@H](O)[C@@H](O)[C@H](O)CO [Galactose] is 5-fold higher in “Reported Affinity for GLUT1” value: 0.8 mM for the first, 4 mM for the second.

Compared with N[C@H]1C(O)O[C@H](CO)[C@@H](O)[C@@H]1O (stereo partly shown) [Glucosamine], O=C(CCc1ccc(O)cc1)c1c(O)cc(O)cc1O [Phloretin] is 180-fold lower in “Reported Affinity for GLUT1” value: 9 mM for the first, 0.05 mM for the second.

Going from “(S)-methoxy-a-methyl-2-napthalene acetic acid amido galacto pyranose” to Fluorodeoxyglucose, the “Reported Affinity for GLUT1” value rises from 1 mM to 4 mM (4-fold).
